Measurements as given in patent publication US12459922B2 (Gilead Sciences, Inc., priority 2022, dated 2025).

Test system: endogenous cellular STAT1 (phosphorylated at Tyr701) in NCI-H1373 cells
Assay: Phospho-STAT1 (Tyr701) LANCE Ultra TR-FRET Detection Assay
Type: cell-based
Settings: Homo sapiens, NCI-H1373, 48 h, phospho-STAT1 (Tyr701) induction, read-out: NH1373 pSTAT1 EC50

Structure (SMILES)	EC50 [nM]
O=c1[nH]ncc(N[C@H]2CCC[C@H](Cn3ccc4cc(-c5ncc(C(F)(F)F)cn5)c(F)cc4c3=O)C2)c1C(F)(F)F [Example 228, 7-fluoro-2-(((1S,3S)-3-((6-oxo-5-(trifluoromethyl)-1,6-dihydropyridazin-4-yl)amino)cyclohexyl)methyl)-6-(5-(trifluoromethyl)pyrimidin-2-yl)isoquinolin-1(2H)-one]	10000
C#C[C@H](CCCn1ccc2cc(-c3ncc(C(F)(F)F)cn3)c(F)cc2c1=O)Nc1cn[nH]c(=O)c1C(F)(F)F [Example 171, 7-fluoro-2-[(4S)-4-[[6-oxo-5-(trifluoromethyl)-1H-pyridazin-4-yl]amino]hex-5-ynyl]-6-[5-(trifluoromethyl)pyrimidin-2-yl]isoquinolin-1-one]	257
C[C@@H]1[C@H](O)CN1c1nc(-c2cc3ncn(CCC[C@H](C)Nc4cn[nH]c(=O)c4C(F)(F)F)c(=O)c3cc2F)ncc1C(F)(F)F [Example 288, 6-fluoro-7-(4-((2R,3R)-3-hydroxy-2-methylazetidin-1-yl)-5-(trifluoromethyl)pyrimidin-2-yl)-3-((S)-4-((6-oxo-5-(trifluoromethyl)-1,6-dihydropyridazin-4-yl)amino)pentyl)quinazolin-4(3H)-one]	10.5
C[C@@H](C[C@@H](O)Cn1ccc2cc(-c3ncc(C(F)(F)F)cn3)c(F)cc2c1=O)Nc1cn[nH]c(=O)c1C(F)(F)F (single isomer, unassigned) [Example 480]	4.14
Cc1nc(N)nc(-c2cc3ccn(CCC[C@H](C)Nc4cn[nH]c(=O)c4C(F)(F)F)c(=O)c3cc2F)n1 [Example 366, (S)-6-(4-amino-6-methyl-1,3,5-triazin-2-yl)-7-fluoro-2-(4-((6-oxo-5-(trifluoromethyl)-1,6-dihydropyridazin-4-yl)amino)pentyl)isoquinolin-1(2H)-one]	92.5
C[C@@H](/C=C/Cn1ccc2cc(-c3ncc(C(F)(F)F)cn3)c(F)c(F)c2c1=O)Nc1cn[nH]c(=O)c1C(F)(F)F [Example 133, (S,E)-7,8-difluoro-2-(4-((6-oxo-5-(trifluoromethyl)-1,6-dihydropyridazin-4-yl)amino)pent-2-en-1-yl)-6-(5-(trifluoromethyl)pyrimidin-2-yl)isoquinolin-1(2H)-one]	2.83
COc1cnc(-c2cc3ccn(CCC[C@H](C)Nc4cn[nH]c(=O)c4C(F)(F)F)c(=O)c3cc2F)nc1N1CC2(COC2)C1 [Example 205]	75.8
CCNc1nc(-c2cc3ccn(CCC[C@H](C)Nc4cn[nH]c(=O)c4C(F)(F)F)c(=O)c3cc2F)ncc1OC [Example 215, (S)-6-(4-(ethylamino)-5-methoxypyrimidin-2-yl)-7-fluoro-2-(4-((6-oxo-5-(trifluoromethyl)-1,6-dihydropyridazin-4-yl)amino)pentyl)isoquinolin-1(2H)-one]	36.1
Nc1nc(-c2cc3ncn(CCC[C@H](COC(F)F)Nc4cn[nH]c(=O)c4C(F)(F)F)c(=O)c3cc2F)nc(C2CC2)c1Cl [Example 414, (R)-7-(4-amino-5-chloro-6-cyclopropylpyrimidin-2-yl)-3-(5-(difluoromethoxy)-4-((6-oxo-5-(trifluoromethyl)-1,6-dihydropyridazin-4-yl)amino)pentyl)-6-fluoroquinazolin-4(3H)-one]	10.9
C[C@@H](CCCn1cnc2cc(-c3ncc(Cl)cn3)c(F)cc2c1=O)Nc1cn[nH]c(=O)c1C(F)(F)F [Example 200, (S)-7-(5-chloropyrimidin-2-yl)-6-fluoro-3-(4-((6-oxo-5-(trifluoromethyl)-1,6-dihydropyridazin-4-yl)amino)pentyl)quinazolin-4(3H)-one]	29.1
COc1cnc(-c2cc3ncn(CCC[C@H](C)Nc4cn[nH]c(=O)c4C(F)(F)F)c(=O)c3cc2F)nc1NCC(F)F [Example 159, 7-[4-(2,2-difluoroethylamino)-5-methoxy-pyrimidin-2-yl]-6-fluoro-3-[(4S)-4-[[6-oxo-5-(trifluoromethyl)-1H-pyridazin-4-yl]amino]pentyl]quinazolin-4-one]	283
Nc1nc(-c2cc3ccn(CCC[C@H](COC(F)F)Nc4cn[nH]c(=O)c4C(F)(F)F)c(=O)c3c(F)c2F)ncc1OC(F)F [Example 397, (R)-6-(4-amino-5-(difluoromethoxy)pyrimidin-2-yl)-2-(5-(difluoromethoxy)-4-((6-oxo-5-(trifluoromethyl)-1,6-dihydropyridazin-4-yl)amino)pentyl)-7,8-difluoroisoquinolin-1(2H)-one]	10.1
O=c1[nH]ncc(N2CC[C@@H]2CCCn2ccc3cc(-c4ncc(C(F)(F)F)cn4)c(F)cc3c2=O)c1C(F)(F)F (single isomer, unassigned) [Example 148]	399
C[C@@H](CCCn1ccc2cc(-c3ncc(C(F)(F)F)c(N)n3)c(F)c(F)c2c1=O)Nc1cn[nH]c(=O)c1C(F)(F)F [Example 81, (S)-6-(4-amino-5-(trifluoromethyl)pyrimidin-2-yl)-7,8-difluoro-2-(4-((6-oxo-5-(trifluoromethyl)-1,6-dihydropyridazin-4-yl)amino)pentyl)isoquinolin-1(2H)-one]	4.26
C[C@@H](CCCn1ccc2cc(-c3cnc(C(F)(F)F)c(N)n3)c(F)cc2c1=O)Nc1cn[nH]c(=O)c1C(F)(F)F [Example 316, (S)-6-(6-amino-5-(trifluoromethyl)pyrazin-2-yl)-7-fluoro-2-(4-((6-oxo-5-(trifluoromethyl)-1,6-dihydropyridazin-4-yl)amino)pentyl)isoquinolin-1(2H)-one]	15.5
O=c1[nH]ncc(N[C@H]2CCC[C@@H](Cn3ccc4cc(-c5ncc(C(F)(F)F)cn5)c(F)c(F)c4c3=O)C2)c1C(F)(F)F [Example 232, 7,8-difluoro-2-(((1R,3S)-3-((6-oxo-5-(trifluoromethyl)-1,6-dihydropyridazin-4-yl)amino)cyclohexyl)methyl)-6-(5-(trifluoromethyl)pyrimidin-2-yl)isoquinolin-1(2H)-one]	1.67
O=c1[nH]ncc(N[C@H](CCCn2ccc3cc(-c4nc5n(n4)CCNC5)c(F)cc3c2=O)COC(F)F)c1C(F)(F)F [Example 439, (R)-2-(5-(difluoromethoxy)-4-((6-oxo-5-(trifluoromethyl)-1,6-dihydropyridazin-4-yl)amino)pentyl)-7-fluoro-6-(5,6,7,8-tetrahydro-[1,2,4]triazolo[1,5-a]pyrazin-2-yl)isoquinolin-1(2H)-one]	534
O=c1[nH]ncc(N2CC(F)(F)C[C@H]2CCCn2ccc3cc(-c4ncc(C(F)(F)F)cn4)c(F)cc3c2=O)c1C(F)(F)F [Example 139, 2-[3-[(2R)-4,4-difluoro-1-[6-oxo-5-(trifluoromethyl)-1H-pyridazin-4-yl]pyrrolidin-2-yl]propyl]-7-fluoro-6-[5-(trifluoromethyl)pyrimidin-2-yl]isoquinolin-1-one]	64.8
O=c1[nH]ncc(N[C@H](CCCn2ccc3cc(-c4ncc(C(F)(F)F)cn4)c(F)cc3c2=O)c2nnc(C(F)F)o2)c1C(F)(F)F [Example 477, 2-[(4R)-4-[5-(difluoromethyl)-1,3,4-oxadiazol-2-yl]-4-[[6-oxo-5-(trifluoromethyl)-1H-pyridazin-4-yl]amino]butyl]-7-fluoro-6-[5-(trifluoromethyl)pyrimidin-2-yl]isoquinolin-1-one]	18.4
O=c1[nH]ncc(N[C@H]2CCC[C@@H](Cn3ccc4cc(-c5nccc(C(F)(F)F)n5)c(F)cc4c3=O)C2)c1C(F)(F)F [Example 272, 7-fluoro-2-(((1R,3S)-3-((6-oxo-5-(trifluoromethyl)-1,6-dihydropyridazin-4-yl)amino)cyclohexyl)methyl)-6-(4-(trifluoromethyl)pyrimidin-2-yl)isoquinolin-1(2H)-one]	10000
CC[C@@H](CCCn1ccc2cc(-c3ncc(Cl)c(N)n3)c(F)c(F)c2c1=O)Nc1cn[nH]c(=O)c1C(F)(F)F [Example 359, (S)-6-(4-amino-5-chloropyrimidin-2-yl)-7,8-difluoro-2-(4-((6-oxo-5-(trifluoromethyl)-1,6-dihydropyridazin-4-yl)amino)hexyl)isoquinolin-1(2H)-one]	1.15
CNc1nc(-c2cc3ncn(CCC[C@H](C)Nc4cn[nH]c(=O)c4C(F)(F)F)c(=O)c3cc2F)ncc1C(F)(F)F [Example 115, 6-fluoro-7-[4-(methylamino)-5-(trifluoromethyl)pyrimidin-2-yl]-3-[(4S)-4-[[6-oxo-5-(trifluoromethyl)-1H-pyridazin-4-yl]amino]pentyl]quinazolin-4-one]	3.42
Nc1nc(-c2cc3ccn(C[C@@H]4CCC[C@H](Nc5cn[nH]c(=O)c5C(F)(F)F)C4)c(=O)c3c(F)c2F)ncc1OC(F)F [Example 245, 6-(4-amino-5-(difluoromethoxy)pyrimidin-2-yl)-7,8-difluoro-2-(((1R,3S)-3-((6-oxo-5-(trifluoromethyl)-1,6-dihydropyridazin-4-yl)amino)cyclohexyl)methyl)isoquinolin-1(2H)-one]	8.13
C[C@@H](CCCn1cnc2cc(-c3nc(N)c4ccccc4n3)c(F)cc2c1=O)Nc1cn[nH]c(=O)c1C(F)(F)F [Example 354, (S)-4-amino-6'-fluoro-3'-(4-((6-oxo-5-(trifluoromethyl)-1,6-dihydropyridazin-4-yl)amino)pentyl)-[2,7'-biquinazolin]-4'(3'H)-one]	65.1
Cc1cnc(N)nc1-c1cc2ncn(CCC[C@H](C)Nc3cn[nH]c(=O)c3C(F)(F)F)c(=O)c2cc1F [Example 79, (S)-7-(2-amino-5-methylpyrimidin-4-yl)-6-fluoro-3-(4-((6-oxo-5-(trifluoromethyl)-1,6-dihydropyridazin-4-yl)amino)pentyl)quinazolin-4(3H)-one]	1500
C[C@@H](CCCn1ccc2cc(-c3ncc(F)c(N)n3)c(F)cc2c1=O)Nc1cn[nH]c(=O)c1C(F)(F)F [Example 103, 6-(4-amino-5-fluoro-pyrimidin-2-yl)-7-fluoro-2-[(4S)-4-[[6-oxo-5-(trifluoromethyl)-1H-pyridazin-4-yl]amino]pentyl]isoquinolin-1-one]	39.8
